Experiment: Solubility evaluation in combinations of solvent systems
Format: physicochemical
Procedure: In addition, the solubility of nalmefene in varying concentrations was evaluated using different combinations of solvent systems. The solvent systems included combinations of polar solvents with different surface active agents. Exemplary surface active agents included: Tween 20, Tween 80, […]® 34/44, KOLLIPHOR® HS 15, SOLUTOL® NF, LABRAFIL® M2125 CS and LABRAFIL® M1944 CS.

Measured: Observation (solubility)

C=C1CC[C@@]2(O)[C@H]3Cc4ccc(O)c5c4[C@@]2(CCN3CC2CC2)[C@H]1O5 [nalmefene]
Completely Soluble,: ID 1, Ethanol:Water 75:25, nalmefene 200 mg/mL | ID 2 (second), Ethanol:Water:Propylene Glycol 82.5:12.5:5, nalmefene 200 mg/mL | ID 2, Ethanol:Water:Tween 20 75:24.5:0.5, nalmefene 250 mg/mL | ID 3, Ethanol:Water:Propylene Glycol 68:22:10, nalmefene 350 mg/mL | ID 5, Ethanol:Water:Propylene Glycol:Tween 80 70:25:4:1, nalmefene 350 mg/mL | ID 6, Ethanol:Water:Glycerine 70:20:10, nalmefene 300 mg/mL | ID 7, Ethanol:Water:Gelucire 34/14 75:20:5, nalmefene 200 mg/mL | ID 8, Ethanol:Water:Labrafil M2125 CS 80:17.5:2.5, nalmefene 200 mg/mL | ID 9, Ethanol:Water:Labrafil M1944 CS 80:17.5:2.5, nalmefene 200 mg/mL
